Assay results as given in patent US20050245563A1 (Millennium Pharmaceuticals, Inc., priority 2003, published 2005).

Molecular target: T1, human Chk1 (GST-Chk1) (Homo sapiens, UniProt O14757)
T1 construct: made in house; host or cells: insect cells (baculovirus, Bac-to-Bac)
T1 sequence (O14757 1-476): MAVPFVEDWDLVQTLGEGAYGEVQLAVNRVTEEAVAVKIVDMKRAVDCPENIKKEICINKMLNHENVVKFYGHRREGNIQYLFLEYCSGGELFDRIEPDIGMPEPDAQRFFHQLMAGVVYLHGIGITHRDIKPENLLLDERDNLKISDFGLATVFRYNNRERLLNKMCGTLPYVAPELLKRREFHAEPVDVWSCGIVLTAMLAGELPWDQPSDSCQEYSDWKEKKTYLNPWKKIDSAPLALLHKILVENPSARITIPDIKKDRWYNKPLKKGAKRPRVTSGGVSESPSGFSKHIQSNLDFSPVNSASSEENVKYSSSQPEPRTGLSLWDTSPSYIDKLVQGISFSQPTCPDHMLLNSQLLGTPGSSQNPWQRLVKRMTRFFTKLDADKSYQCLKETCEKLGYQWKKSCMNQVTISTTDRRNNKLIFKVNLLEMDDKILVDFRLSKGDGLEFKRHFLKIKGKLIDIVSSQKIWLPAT
Test: Chk1 FlashPlate kinase assay
Assay type: biochemical
Conditions: 8.7 nM GST-Chk1, 1 uM ATP, 33P incorporation into peptide substrate
Protocol: Recombinant human Chk1 was expressed as a fusion protein with glutathione S-transferase at the amino-terminus (GST-Chk1) using standard baculovirus vectors and (Bac-to-Bac®) insect cell expression system purchased from GIBCO™ Invitrogen. Recombinant protein expressed in insect cells was purified using glutathione sepharose (Amersham Biotech) using standard procedures described by the manufacturer.
Chk1 FlashPlate® Kinase Assay:
Assays (25 μL) contained 8.7 nM GST-Chk1, 10 mM MES, 0.1 mM ethylene glycol-bis(β-aminoethylether)-N,N,N′,N′-tetracetic acid (EGTA, pH 8.0), 2 mM DTT, 0.05% Tween 20, 3 uM peptide substrate (Biotin-ILSRRPSYRKILND-free acid) (SEQ ID NO: 1), 1 uM ATP, 0.4 uCi ^33P-γ-ATP (NEN), 4% DMSO. Reactions were incubated for 30 minutes at room temperature, terminated with 50 μL of 50 mM EDTA and 90 μL were transferred to streptavidin-coated FlashPlates® (NEN) and incubated for 1 hour at room temperature. Plates were washed with phosphate buffered salaine containing 0.01% Tween-20 and 10 mM sodium pyrophosphate. Plates were dried, sealed with Topseal™ (NEN) and amount of ^33P incorporated into the peptide substate measure using a Packard Topcount® NXT™ scintillation counter with standard settings.

| IC50 [µM] | Structure (SMILES) |
| --- | --- |
| < 1 | Cc1[nH]nc2c1c(=O)n(CCCNC(=O)C(N)Cc1ccc(Cl)cc1)c1ccccc21 (centres unmarked) [Example 117, 2-Amino-3-(4-chloro-phenyl)-N-[3-(3-methyl-4-oxo-2,4-dihydro-pyrazolo[4,3-c]quinolin-5-yl)-propyl]-propionamide] |
| < 1 | Cc1[nH]nc2c1c(=O)n(CCCNC(=O)N1CCOCC1)c1ccccc21 [Example 74, Morpholine-4-carboxylic acid [3-(3-methyl-4-oxo-2,4-dihydro-pyrazolo[4,3-c]quinolin-5-yl)-propyl]-amide] |
| > 20 | Cc1[nH]nc2c1c(=O)[nH]c1c(OCCCNC(=O)OC(C)(C)C)cccc12 [Example 24, [3-(3-Methyl-4-oxo-4,5-dihydro-2H-pyrazolo[4,3-c]quinolin-6-yloxy)-propyl]-carbamic acid tert-butyl ester] |
| < 1 | COc1ccc2c(c1)c1n[nH]c(C)c1c(=O)n2CCCNC(=O)OC(C)(C)C [Example 79, [3-(8-Methoxy-3-methyl-4-oxo-2,4-dihydro-pyrazolo[4,3-c]quinolin-5-yl)-propyl]-carbamic acid tert-butyl ester] |
| 1 to 20 | Cc1[nH]nc2c1c(=O)n(CCNC(=O)CCc1ccccc1)c1ccccc21 [Example 92, N-[2-(3-Methyl-4-oxo-2,4-dihydro-pyrazolo[4,3-c]quinolin-5-yl)-ethyl]-3-phenyl-propionamide] |
| < 1 | Cc1n[nH]c2c1c(=O)n(CCCNC(=O)OC(C)(C)C)c1ccccc21 [Example 6, [3-(3-Methyl-4-oxo-1,4-dihydro-pyrazolo[4,3-c]quinolin-5-yl)-propyl]-carbamic acid tert-butyl ester] |
| 1 to 20 | Cc1[nH]nc2c1c(=O)n(CCCNC(=O)CCNC(=O)OC(C)(C)C)c1ccccc21 [Example 101, {2-[3-(3-Methyl-4-oxo-2,4-dihydro-pyrazolo[4,3-c]quinolin-5-yl)-propylcarbamoyl]-ethyl}-carbamic acid tert-butyl ester] |
| < 1 | Cc1n[nH]c2c1c(=O)n(CC1CCNCC1)c1ccc(Br)cc21 [Example 39, 8-Bromo-3-methyl-5-piperidin-4-ylmethyl-1,5-dihydro-pyrazolo[4,3-c]quinolin-4-one] |
| < 1 | Cc1n[nH]c2c1c(=O)n(CCCC(=O)NCc1ccc(Cl)cc1)c1ccc(Br)cc21 [Example 22, 4-(8-Bromo-3-methyl-4-oxo-1,4-dihydro-pyrazolo[4,3-c]quinolin-5-yl)-N-(4-chloro-benzyl)-butyramide] |
| < 1 | Cc1n[nH]c2c1c(=O)n(CCCNCc1ccccc1)c1ccccc21 [Example 5, 5-(3-Benzylamino-propyl)-3-methyl-1,5-dihydro-pyrazolo[4,3-c]quinolin-4-one] |
| < 1 | Cc1[nH]nc2c1c(=O)n(CCCN(C)C)c1ccc(Cl)cc21 [Example 16, 8-Chloro-5-(3-dimethylamino-propyl)-3-methyl-2,5-dihydro-pyrazolo[4,3-c]quinolin-4-one] |
| < 1 | Cc1[nH]nc2c1c(=O)n(CCCN)c1ccc(Br)cc21 [Example 57, 5-(3-Amino-propyl)-8-bromo-3-methyl-1,5-dihydro-pyrazolo[4,3-c]quinolin-4-one] |
| < 1 | Cc1n[nH]c2c1c(=O)n(CCCCNC(=O)c1ccccc1)c1ccc(Br)cc21 [Example 36, N-[4-(8-Bromo-3-methyl-4-oxo-1,4-dihydro-pyrazolo[4,3-c]quinolin-5-yl)-butyl]-benzamide] |
| < 1 | Cc1n[nH]c2c1c(=O)n(CCCC(=O)N1CCN(C(=O)OC(C)(C)C)CC1)c1ccc(Br)cc21 [Example 21, 4-[4-(8-Bromo-3-methyl-4-oxo-1,4-dihydro-pyrazolo[4,3-c]quinolin-5-yl)-butyryl]-piperazine-1-carboxylic acid tert-butyl ester] |
| < 1 | NCCCn1c(=O)c2c[nH]nc2c2cc(Cl)ccc21 [Example 109, 5-(3-Amino-propyl)-8-chloro-2,5-dihydro-pyrazolo[4,3-c]quinolin-4-one] |
| < 1 | Cc1n[nH]c2c1c(=O)n(CC(C)CN)c1ccc(Br)cc21 (centres unmarked) [Example 42, 5-(3-Amino-2-methyl-propyl)-8-bromo-3-methyl-1,5-dihydro-pyrazolo[4,3-c]quinolin-4-one] |

| IC50 [µM] | Structure (SMILES) |
| --- | --- |
| < 1 | Cc1[nH]nc2c1c(=O)n(CCCNC(=O)C1CCC(=O)N1)c1ccccc21 (centres unmarked) [Example 103, 5-Oxo-pyrrolidine-2-carboxylic acid [3-(3-methyl-4-oxo-2,4-dihydro-pyrazolo[4,3-c]quinolin-5-yl)-propyl]-amide] |
| < 1 | Cc1[nH]nc2c1c(=O)n(CCCNC(=O)CCCN)c1ccccc21 [Example 106, 4-Amino-N-[3-(3-methyl-4-oxo-2,4-dihydro-pyrazolo[4,3-c]quinolin-5-yl)-propyl]-butyramide] |
| < 1 | Cc1[nH]nc2c1c(=O)n(CCCNC(=O)C(N)Cc1ccc(O)cc1)c1ccccc21 (centres unmarked) [Example 108, 2-Amino-3-(4-hydroxy-phenyl)-N-[3-(3-methyl-4-oxo-2,4-dihydro-pyrazolo[4,3-c]quinolin-5-yl)-propyl]-propionamide] |
| 1 to 20 | Cc1n[nH]c2c1c(=O)n(CCNC(=O)C(Cc1ccccc1)NC(=O)OC(C)(C)C)c1ccccc21 (centres unmarked) [Example 97, {1-[2-(3-Methyl-4-oxo-1,4-dihydro-pyrazolo[4,3-c]quinolin-5-yl)-ethylcarbamoyl]-2-phenyl-ethyl}-carbamic acid tert-butyl ester] |
| 1 to 20 | COc1ccc(C(=O)NCCn2c(=O)c3c(C)[nH]nc3c3ccccc32)cc1 [Example 91, 4-Methoxy-N-[2-(3-methyl-4-oxo-2,4-dihydro-pyrazolo[4,3-c]quinolin-5-yl)-ethyl]-benzamide] |
| < 1 | Cc1[nH]nc2c1c(=O)n(CCCNC(=O)OCc1ccccc1Br)c1ccccc21 [Example 119, [3-(3-Methyl-4-oxo-2,4-dihydro-pyrazolo[4,3-c]quinolin-5-yl)-propyl]-carbamic acid 2-bromo-benzyl ester] |
| 1 to 20 | Cc1n[nH]c2c1c(=O)n(CC1CCN(C(=O)OC(C)(C)C)CC1)c1ccc(Br)cc21 [Example 37, 4-(8-Bromo-3-methyl-4-oxo-1,4-dihydro-pyrazolo[4,3-c]quinolin-5-ylmethyl)-piperidine-1-carboxylic acid tert-butyl ester] |
| < 1 | Cc1n[nH]c2c1c(=O)n(CCN)c1ccccc21 [Example 11, 5-(2-Amino-ethyl)-3-methyl-1,5-dihydro-pyrazolo[4,3-c]quinolin-4-one] |
| < 1 | Cc1n[nH]c2c1c(=O)n(CCCNC(=O)OC(C)(C)C)c1ccc(Br)cc21 [Example 56, [3-(8-Bromo-3-methyl-4-oxo-1,4-dihydro-pyrazolo[4,3-c]quinolin-5-yl)-propyl]-carbamic acid tert-butyl ester] |
| 1 to 20 | Cc1[nH]nc2c1c(=O)n(CCNC(=O)C1CCCCC1)c1ccccc21 [Example 93, Cyclohexanecarboxylic acid [2-(3-methyl4-oxo-2,4-dihydro-pyrazolo[4,3-c]quinolin-5-yl)-ethyl]-amide] |
| < 1 | Cc1[nH]nc2c1c(=O)n(CCCN)c1cc(Cl)ccc21 [Example 70, 5-(3-Amino-propyl)-7-chloro-3-methyl-2,5-dihydro-pyrazolo[4,3-c]quinolin-4-one] |
| 1 to 20 | Cc1[nH]nc2c1c(=O)n(CCCNC(=O)C(N)Cc1ccc(OCc3ccccc3)cc1)c1ccccc21 (centres unmarked) [Example 107, 2-Amino-3-(4-benzyloxy-phenyl)-N-[3-(3-methyl-4-oxo-2,4-dihydro-pyrazolo[4,3-c]quinolin-5-yl)-propyl]-propionamide] |
| < 1 | Cc1[nH]nc2c1c(=O)n(CCCNC(=O)c1ccc(C(C)(C)C)cc1)c1ccccc21 [Example 85, 4-tert-Butyl-N-[3-(3-methyl-4-oxo-2,4-dihydro-pyrazolo[4,3-c]quinolin-5-yl)-propyl]-benzamide] |
| < 1 | Cc1[nH]nc2c1c(=O)n(CCCC#N)c1ccc(Br)cc21 [Example 20, 4-(8-Bromo-3-methyl-4-oxo-2,4-dihydro-pyrazolo[4,3-c]quinolin-5-yl)-butyronitrile] |
| 1 to 20 | Cc1[nH]nc2c1c(=O)n(CCNS(=O)(=O)c1ccccc1)c1ccccc21 [Example 110, N-[2-(3-Methyl-4-oxo-2,4-dihydro-pyrazolo[4,3-c]quinolin-5-yl)-ethyl]-benzene sulfonamide] |
| 1 to 20 | COc1ccc(Cl)cc1NC(=O)NCCn1c(=O)c2c(C)n[nH]c2c2ccccc21 [Example 89, 1-(5-Chloro-2-methoxy-phenyl)-3-[2-(3-methyl-4-oxo-1,4-dihydro-pyrazolo[4,3-c]quinolin-5-yl)-ethyl]-urea] |
